Assay results: patent US9573895B2, “Tetracycline compounds” (Tetraphase Pharmaceuticals, Inc., priority 2012, dated 2017)
In brackets after ≈: the same amount, converted by molar mass.

Test system: Burkholderia cenocepacia BC240 (Cystic fibrosis isolate, MDR)
Experiment: MIC assay BC240
Assay type: cell-based

| SMILES | MIC BC240 (Table 5) [µg/mL] | MIC BC240 (Table 6) [µg/mL] | MIC BC240 (Table 7) [µg/mL] | MIC BC240 (control compounds, numeric) [µg/mL] |
| --- | --- | --- | --- | --- |
| CN(C)c1cc(NC(=O)CNC(C)(C)C)c(O)c2c1C[C@H]1C[C@H]3[C@H](N(C)C)C(O)=C(C(N)=O)C(=O)[C@@]3(O)C(O)=C1C2=O [Tigecycline, tigecycline] | 16 (≈ 27.3 µM) | 16 (≈ 27.3 µM) | 16 (≈ 27.3 µM) | 16 (≈ 27.3 µM) |
| CN(C)[C@@H]1C(O)=C(C(N)=O)C(=O)[C@@]2(O)C(O)=C3C(=O)c4c(O)cccc4C[C@H]3C[C@@H]12 [Sancycline, sancycline] | 4 (≈ 9.65 µM) | 4 (≈ 9.65 µM) | 4 (≈ 9.65 µM) | 4 (≈ 9.65 µM) |
